Experimental data taken from ChEMBL document CHEMBL1201862, “PubChem BioAssay data set” (2004).
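Cells were grown in 96-well plates and exposed to each compound for 48 hours at five concentrations; endpoints were interpolated linearly between bracketing concentrations, or set to the highest concentration if not reached. GI50 is the concentration that inhibits growth by half.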 Calls of active or inactive are those of the source. Cut-off read from the data, not from the text of the source: active = GI50 up to about 1.1 µM and inactive = higher.

Key:
Assay in all cases: NCI anticancer screen, dose series, 48 h
[1] = tested on: IGROV-1
[2] = tested on: MOLT-4
[3] = tested on: A549
[4] = tested on: SN12C
[5] = tested on: KM12
[6] = tested on: HOP-92
[7] = tested on: UO-31
[8] = tested on: U-251
[9] = tested on: SW-620
[10] = tested on: M14
[11] = tested on: BT-549
[12] = tested on: SK-OV-3
[13] = tested on: ACHN
[14] = tested on: SR
[15] = tested on: T47D
[16] = tested on: MCF7
[17] = tested on: UACC-257
[18] = tested on: HOP-62
[19] = tested on: HCT-116
[20] = tested on: COLO 205

Measured: GI50

CC(C)(C)c1ccc(OCCOc2ccc(C(C)(C)C)cc2N)c(N)c1
inactive: [1] 38.5 µM | [2] > 100 µM | [3] 26.2 µM | [4] > 100 µM | [5] > 100 µM | [6] 17.4 µM | [7] > 100 µM | [8] 17.1 µM | [9] > 100 µM | [10] > 100 µM | [11] 91 µM | [12] > 100 µM | [13] 60.1 µM | [14] > 100 µM | [15] 25.6 µM | [16] > 100 µM | [17] > 100 µM | [18] > 100 µM | [19] > 100 µM | [20] > 100 µM
